Results taken from patent publication US5116855A, “Rhodanine derivatives and pharmaceutical compositions” (Nisshin Flour Milling Co., Ltd., priority 1989, dated 1992).

Target: T1, aldose reductase (Rattus norvegicus, UniProt P07943)
T1 construct: the lenses were excised and homogenized in cold distilled water; from tissue; host or cells: lens of male SD rats, homogenate supernatant (crude enzyme)
Test: Inhibitory activity against aldose reductase (crude enzyme from rat lenses, NADPH oxidation at 340 nm, D,L-glyceraldehyde substrate)
Type: biochemical
Conditions: aldose reductase from SD rat lenses, pH 6.2, 30° C.; for inhibition at 10 µM: pH 6.2, 10^-5 M; for inhibition at 10 µM / inhibition at 1 µM: read-out: Percentage of inhibition (%); for inhibition at 1 µM: pH 6.2, 10^-6 M
Protocol: The compounds of the present invention were evaluated for the inhibitory activity against aldose reductase according to the following assay procedure.
Enzyme activity was assayed according to the modification [Biochemical Pharmacology, 25, 2505 (1976)] of the method described in J. Biol. Chem., 240, 877-882 (1965).
SD strain male rats were sacrificed by decapitation, the lenses were excised and homogenized in cold distilled water. The homogenate was then centrifuged and the supernatant was used as the crude aldose reductase solution.
Separately, a 0.1 M sodium phosphate buffer (pH 6.2) containing 0.4 M ammonium sulfate was prepared at 30° C. In this buffer were dissolved the present compound, the crude aldose reductase solution and nicotinamide-adenine dinucleotide phosphate, reduced form (NADPH). The mixture was preincubated at 30° C. for 3 minutes and the reaction was initiated by addition of D,L-glyceraldehyde. In this case, the concentration of the present compound dissolved was 10^-5 M and 10^-6 M, respectively. The total amount of the assay mixture was 1.0 ml, containing 0.16 mM of NADPH, 10 mM of D,L-glyceraldehyde and 0.010-0.016 units of aldose reductase.
The inhibitory activity of the present compounds against aldose reductase was measured using each 1.0 ml of the reaction mixture containing the present compound in the above concentration. In this measurement, the rate of NADPH oxidation was followed by recording the decrease in absorbance at 340 nm. The inhibitory activity of the present compounds against aldose reductase as measured was expressed in percentage of inhibition (%) as a relative activity based on a control value.

| inhibition at 10 µM [%] | inhibition at 1 µM [%] | Percentage of inhibition (%) (10^-5 M) | Percentage of inhibition (%) (10^-6 M) | Compound |
| --- | --- | --- | --- | --- |
| 92 | 77.6 | – | – | CC(C=Cc1cc(C(C)C)ccc1OCC(=O)O)=C1SC(=S)NC1=O [Example 85, 4-Isopropyl-2-[3-(4-oxo-2-thioxo-5-thiazolinylidene)-1-butenyl]phenoxyacetic acid] |
| – | – | 89.8 | – | CC(C=Cc1ccc(OCC(=O)O)cc1)=C1SC(=S)NC1=O (single isomer, unassigned) [21 Isomer B] |
| 73 | – | – | – | O=C(O)CCC(C=Cc1cccs1)=C1SC(=S)NC1=O [Example 30, 6-(2-Thienyl)-4-(4-oxo-2-thioxo-5-thiazolidinylidene)-5-hexenoic acid] |
| – | – | 54.3 | – | CCOC(=O)CCC(C=Cc1cccs1)=C1SC(=S)NC1=O (single isomer, unassigned) [13 Isomer B] |
| 33 | – | – | – | CCCCCCC(C=Cc1ccc(C=CC(=O)O)cc1)=C1SC(=S)NC1=O (single isomer, unassigned) [Example 28, 4-[3-(4-Oxo-2-thioxo-5-thiazolidinylidene)-1-nonenyl]cinnamic acid] |
| 80 | 30.5 | – | – | COC(=O)COc1ccc(Cl)cc1C=CC(C)=C1SC(=S)NC1=O [Example 49, Methyl 4-chloro-2-[3-(4-oxo-2-thioxo-5-thiazolinylidene)-1-butenyl]phenoxyacetate] |
| – | – | 70.3 | 30.4 | COC(=O)COc1ccc(C=CC(C)=C2SC(=S)NC2=O)cc1OCC(=O)OC (single isomer, unassigned) [60 Isomer B] |
| 80.1 | 24.8 | – | – | COc1cccc(C=CC(C)=C2SC(=S)NC2=O)c1OCC(=O)O [Example 72, 2-Methoxy-6-[3-(4-oxo-2-thioxo-5-thiazolinylidene)-1-butenyl] phenoxyacetic acid] |
| 62.6 | 29.9 | – | – | CCCCCCC(C=Cc1ccc(OCc2nn[nH]n2)cc1)=C1SC(=S)NC1=O [Example 4] |
| 39.1 | – | – | – | CCOc1cc(C=CC(C)=C2SC(=S)NC2=O)ccc1OCC(=O)OC [Example 44, Methyl 2-ethoxy-4-[3-(4-oxo-2-thioxo-5-thiazolinylidene)-1-butenyl]phenoxyacetate] |
| 86.2 | 48.5 | – | – | COC(=O)COc1ccccc1C=C(C)C=C1SC(=S)NC1=O [Example 41, Methyl 2-[2-methyl-3-(4-oxo-2-thioxo-5-thiazolinylidene)-1-propenyl]phenoxyacetate] |
| 88.1 | 41.9 | – | – | O=C(O)CCC(C=Cc1ccccc1F)=C1SC(=S)NC1=O (single isomer, unassigned) [Example 22, 6-(2-Fluorophenyl)-4-(4-oxo-2-thioxo-5-thiazolidinylidene)-5-hexenoic acid] |
| 78.4 | 46.4 | – | – | COc1cc(CCC(C)=C2SC(=S)NC2=O)ccc1OCC(=O)O [Example 69, 2-Methoxy-4-[3-(4-oxo-2-thioxo-5-thiazolinylidene)butyl]-phenoxyacetic acid] |
| 48 | – | – | – | CC(C=Cc1cc(Cl)ccc1OCC(=O)OCc1ccccc1)=C1SC(=S)NC1=O [Example 50, Benzyl 4-chloro-2-[3-(4-oxo-2-thioxo-5-thiazolinylidene)-1-butenyl]phenoxyacetate] |
| 80.8 | 35.5 | – | – | CCC(CCc1cccn1CCC(=O)O)=C1SC(=S)NC1=O [Example 34, 3-{2-[3-(4-Oxo-2-thioxo-5-thiazolidinylidene)pentyl]pyrrol-1-yl}propionic acid] |
| 38.1 | 23.8 | – | – | CCOC(=O)COc1ccc(C=CC(C)=C2SC(=S)N(C)C2=O)cc1OC (single isomer, unassigned) [55 Isomer A] |
| 48.3 | – | – | – | COC(=O)COc1ccc(C(C)C)cc1C=CC(C)=C1SC(=S)NC1=O (single isomer, unassigned) [62 Isomer A] |
| 84 | 43.9 | – | – | O=C1NC(=S)SC1=Cc1ccc(OCCCCc2nnn[nH]2)cc1 [Example 20, 5-{4-[4-(1H-Tetrazol-5-yl)butyloxy]benzylidene}-4-oxo-2-thioxothiazolidine] |
| 90.6 | 53.1 | – | – | CCCC(CCc1ccccc1OCC(=O)O)=C1SC(=S)NC1=O (single isomer, unassigned) [27 Isomer A] |
| – | – | 80.5 | 32.2 | COC(=O)COc1ccccc1C=C(C)C=C1SC(=S)NC1=O [Example 63, Methyl 2-[2-methyl-3-(4-oxo-2-thioxo-5-thiazolinylidene)-1-propenyl]phenoxyacetate] |

| inhibition at 10 µM [%] | inhibition at 1 µM [%] | Percentage of inhibition (%) (10^-5 M) | Percentage of inhibition (%) (10^-6 M) | Compound |
| --- | --- | --- | --- | --- |
| 63.9 | 27.1 | – | – | COC(=O)COc1ccc(Br)cc1C=CC(C)=C1SC(=S)NC1=O [Example 56, Methyl 4-bromo-2-[3-(4-oxo-2-thioxo-5-thiazolinylidene)-1-butenyl]phenoxyacetate] |
| 55.2 | 34.3 | – | – | COC(=O)COc1ccc(OC)cc1C=CC(C)=C1SC(=S)NC1=O [Example 65, Methyl 4-methoxy-2-[3-(4-oxo-2-thioxo-5-thiazolinylidene)-1-butenyl]phenoxyacetate] |
| 82.4 | 43.4 | – | – | CC(C=Cc1ccc(OCC(=O)O)c(OCC(=O)O)c1)=C1SC(=S)NC1=O (single isomer, unassigned) [83 Isomer A] |
| 48.9 | – | – | – | CCOc1cc(CCC(C)=C2SC(=S)NC2=O)ccc1OCC(=O)OC [Example 45, Methyl 2-ethoxy-4-[3-(4-oxo-2-thioxo-5-thiazolinylidene)butyl]phenoxyacetate] |
| 82 | 32.9 | – | – | O=C(O)CCC(C=Cc1cccc(O)c1)=C1SC(=S)NC1=O (single isomer, unassigned) [Example 25, 6-(3-Hydroxyphenyl)-4-(4-oxo-2-thioxo-5-thiazolidinylidene)-5-hexenoic acid] |
| – | – | 30.5 | – | CCCCCCC(CCc1ccc(CCC(=O)O)cc1)=C1SC(=S)NC1=O (single isomer, unassigned) [33 Isomer B] |
| – | – | 52.1 | – | CCCCCCC(C=Cc1ccc(C(=O)O)cc1)=C1SC(=S)NC1=O (single isomer, unassigned) [26 Isomer B] |
| 95.3 | 79.4 | – | – | CC(C=Cc1ccccc1OCC(=O)O)=C1SC(=S)NC1=O [Example 67, 2-[3-(4-Oxo-2-thioxo-5-thiazolinylidene)-1-butenyl]phenoxyacetic acid] |
| – | – | 80.5 | 34.5 | CCCC(C=Cc1ccc(C(=O)O)cc1)=C1SC(=S)NC1=O (single isomer, unassigned) [3 Isomer B] |
| 62.6 | 50.9 | – | – | CCOC(=O)COc1ccccc1C=CC(C)=C1SC(=S)NC1=O [Example 39, Ethyl 2-[3-(4-oxo-2-thioxo-5-thiazolinylidene)-1-butenyl]phenoxacetate] |
| 77.1 | 29.7 | – | – | CCCC(C=Cc1ccc(C(=O)O)cc1)=C1SC(=S)NC1=O (single isomer, unassigned) [3 Isomer A] |
| – | – | 77.6 | 35.9 | 5-[α-Methyl-4-(1H-tetrazol-5-yl)cinnamylidene)-4-oxo-2-thioxothiazolidine [Example 17] |
| 94.9 | 78.3 | – | – | CC(C=Cc1ccc(OCC(=O)O)cc1)=C1SC(=S)NC1=O (single isomer, unassigned) [21 Isomer A] |
| 56 | – | – | – | CCOC(=O)CCC(C=Cc1cccs1)=C1SC(=S)NC1=O (single isomer, unassigned) [13 Isomer A] |
| 69.1 | – | – | – | COC(=O)COc1c(OC)cc(C=CC(C)=C2SC(=S)NC2=O)cc1OC [Example 48, Methyl 2,6-dimethoxy-4-[3-(4-oxo-2-thioxo-5-thiazolinylidene)-1-butenyl]phenoxyacetate] |
| 59.2 | – | – | – | COc1cccc(CCC(C)=C2SC(=S)NC2=O)c1OCC(=O)O [Example 73, 2-Methoxy-6-(3-(4-oxo-2-thioxo-5-thiazolinylidene)butyl]phenoxyacetic acid] |
| 93.7 | 82.4 | – | – | CC(=Cc1ccccc1OCC(=O)O)C=C1SC(=S)NC1=O [Example 68, 2-[2-Methyl-3-(4-oxo-2-thioxo-5-thiazolinylidene)-1-propenyl]phenoxyacetic acid] |
| – | – | 77.2 | 39.0 | CCCC(=Cc1ccccc1OCC(=O)OC)C=C1SC(=S)NC1=O (single isomer, unassigned) [61 Isomer B] |
| 87.1 | 65.9 | – | – | COc1cc(C=CC(C)=C2SC(=S)N(C)C2=O)ccc1OCC(=O)O [Example 78, 2-Methoxy-4-[3-(3-methyl-4-oxo-2-thioxo-5-thiazolinylidene)-1-butenyl]phenoxyacetic acid] |
